The source of these data is patent US10654866B2, “Selective estrogen receptor degraders” (Eli Lilly and Company, priority 2018, dated 2020).

The target in test [1] is Y537N mutant ERα receptor (Homo sapiens, UniProt P03372, Y537N). Description: PRα inhibition (ERα functional antagonism) cell assay in MCF7-ESR1 Y537N 682 CRISPR cells. The test is classed as cell-based. The conditions noted are these: MCF7 Y537N 682 CRISPR cells, 72 hours, % PR positive cells; read-out: Relative IC50. How it is done:
An antagonist in this assay is expected to block the function of the ERα receptor.
Incubate the cells overnight in a cell culture incubator (5% CO2, 95% relative humidity and 37° C.) and allow the cells to attach to the plate. The following day dose the cells with the test compound. Use an Echo 555 acoustic dispenser to prepare compound serial dilutions (1:3) in a range from 6 μM to 0.0003 μM. Dose the cells with the addition of 5 μL from the serial dilution plate to the cell plate producing a final DMSO concentration of 0.2% with a final test compound concentration dose range between 2 and 0.0001 μM. For the maximum point use media containing 0.2% of DMSO and for the minimum point, use fulvestrant diluted at 2 μM final concentrations in the growth media containing 0.2% DMSO. After dosing with test compound, incubate the cell plates at 37° C. and 5% CO2 for 72 hours. Fix the cells by adding 14% para-formaldehyde (10 μL) for 30 minutes at room temperature. Wash the cells with PBS (1×20 μL) and incubate with PBS (20 μL) of containing 0.5% (v/v) TWEEN® 20 for 1 hour. Wash the cells with PBS (2×20 μL) 0.05% TWEEN® 20, and block with 3% BSA/PBS 0.05% TWEEN® 20, 0.1% TRITON™ X-100 (20 μL/well) for 1 hour at room temperature. Add 1:500 primary antibody (20 μL) (PR monoclonal mouse anti-human antibody, clone PgR 636 Dako, M3569) dilution in 1% BSA/PBS 0.05 TWEEN® 20 per well, seal the plates and incubate overnight at 4° C.
The following day, wash the cells with PBS […] (2×20 μL) and incubate with secondary antibody (20 μL/well) (1:1000 dilution, Goat anti-rabbit IgM ALEXA FLUOR™ 488) in PBS 1% BSA for 105 minutes at room temperature. […] Seal the plates and incubate 1 hour at room temperature on the bench (preserved from light). Scan the plates with ACUMEN EXPLORER™ [Laser-scanning fluorescence microplate cytometer manufactured by TTP LABTECH LTD] to measure PRα. Image analysis is based on cellular fluorescent signals for identifying positive cells. Identify PR positive cells by mean intensity. Use total intensity at 575-640 nm from propidium iodide/DNA to identify individual cells. Assay output is % PR positive cells. Determine the IC50 by curve fitting to a four parameter logistic for each output using GENE DATA™.

Test [2] addresses T1, ERα (Homo sapiens (Human), UniProt P03372). The test is described as follows: ERα degradation assay in MCF7 cells. The test is classed as cell-based. The settings on record: 24 hours, % ER positive cells, read-out: Relative IC50. On the procedure: The purpose of the following ERα degradation assay is to measure the degradation of ERα by a test compound in an ERα positive breast cancer cell line such as MCF7.
Culture MCF7 (purchased from ATCC HTB-22) cells in DMEM media supplemented with 10% FBS, 0.01 mg/mL human insulin 1 and 1% penicillin/streptomycin antibiotics and plate in 384-well flat-bottom plates at a density of 4,000 cells per well in phenol red free DMEM media (20 μL) containing 10% charcoal stripped FBS. Incubate the cells overnight in a cell culture incubator (5% CO2, 95% relative humidity and 37° C.) and allow the cells to attach to the plate. The following day dose the cells with the test compound. Use an Echo 555 acoustic dispenser to prepare test compound serial dilutions (1:3) in a range from 6 μM to 0.0003 μM. Dose the cells with the addition of 5 μL from the serial dilution plate to the cell plate producing a final DMSO concentration of 0.2% with a final test compound concentration dose range between 2 and 0.0001 μM. For the maximum point, use media containing 0.2% of DMSO and for the minimum point, use fulvestrant diluted at 2 μM final concentrations in the growth media containing 0.2% DMSO. After dosing with the test compound, incubate the cell plates at 37° C. and 5% CO2 for 24 hours. Fix the cells by adding 14% para-formaldehyde (10 μL) for 30 minutes at room temperature. Wash the cells once with PBS (20 μL) and incubate with PBS (20 μL) containing 0.5% (v/v) TWEEN® 20 for 1 hour. Wash the cells with PBS containing 0.05% TWEEN® 20 (2×) and block with 3% BSA in PBS containing 0.05% TWEEN® 20 and 0.1% TRITON™ X-100 (20 μL/well) for 1 hour at room temperature. Add 1:500 Primary antibody (20 μL) (ERα (Clone SP1) monoclonal rabbit antibody # RM-9101-S, Thermo Scientific) dilution in 1% BSA in PBS containing 0.05% TWEEN® 20 per well, seal the plates and incubate overnight at 4° C. The following day wash the cells with PBS containing 0.05% TWEEN® 20 (2×) and incubate with secondary antibody (20 μL/well) (1:1000 dilution, Goat anti-rabbit IgM ALEXA FLUOR™ 488) in PBS 1% BSA for 105 minutes at room temperature. […] Seal the plates and incubate 1 hour at room temperature on the bench (preserved from light). Scan the plates with ACUMEN EXPLORER™ [Laser-scanning fluorescence microplate cytometer manufactured by TTP LABTECH LTD] to measure ERα. Image analysis is based on cellular fluorescent signals for identifying positive cells. Identify ER positive cells by mean intensity. Use total intensity at 575-640 nm from propidium iodide/DNA to identify individual cells. Assay output is % ER positive cells. Determine the IC50 by curve fitting to a four parameter logistic for each output using GENE DATA™.

For another test, the target named is ERα (Y537S mutant) (Homo sapiens (Human), UniProt P03372, Y537S). Description: ERα (Y537S mutant) competition binding assay. The conditions noted are these: 3H-estradiol competition; Ki from IC50 by Cheng-Prusoff. On the procedure:
(§1) Add the test compound at 10 different concentrations ranging from 10,000 nM to 0.5 nM, and determine nonspecific binding in the presence of 1 μM of 1713 estradiol. Incubate the binding reaction (140 μL) for 4 hours at room temperature, and then add cold dextran-charcoal buffer (70 μL) (containing per 50 mL of assay buffer, 0.75 g of charcoal and 0.25 g of dextran) to each reaction. Mix the plates for 8 minutes on an orbital shaker at 4° C. and then centrifuge at 3000 rpm at 4° C. for 10 minutes. Transfer an aliquot (120 μL) of the mixture to another 96-well, white flat bottom plate (Costar) and add Perkin Elmer Optiphase Supermix scintillation fluid (175 μL) to each well. Seal the plates and shake vigorously on an orbital shaker. After an incubation of 2.5 hours, read the plates in a Wallac Microbeta counter. […] Convert the IC50 values for the compound to Ki using Cheng-Prusoff equation.

A further test addresses ERα (wild type) (Homo sapiens (Human), UniProt P03372). The test is described as follows: ERα (wild type) competition binding assay. The settings on record: 3H-estradiol competition; Ki from IC50 by Cheng-Prusoff. How it is done:
as §1

The target in test [3] is T1, ERα. The test is described as follows: PRα inhibition (ERα functional antagonism) cell assay in MCF7 cells. The test is classed as cell-based. The conditions noted are these: MCF7 cells pretreated with 0.47 nM estradiol, % PRα positive cells; read-out: Relative IC50. An excerpt: The purpose of the following PRα inhibition (ERα functional antagonism) cell assay is to determine the antagonistic activity of a test compound against the ERα receptor. An antagonist in this assay is expected to block the function of the ERα receptor.
Carry out the assay conditions as detailed in the ERα degradation Cell base Acumen assay above, using the MCF7 cell line except that, prior to test compound dispensing, remove the media from the cell plate and pretreat all wells except for the negative control wells (column 24 of the plate) with assay media containing 0.47 nM estradiol for 30 minutes. In this assay, carry out immunostaining for the detection of PRα and scan the plates with ACUMEN EXPLORER™ [Laser-scanning fluorescence microplate cytometer manufactured by TTP LABTECH LTD] to measure PRα. Image analysis is based on cellular fluorescent signals for identifying positive cells. Identify PRα positive cells by mean intensity. Use total intensity at 575-640 from propidium iodide/DNA to identify individual cells. Assay output is % PRα positive cells. Determine the IC50 by curve fitting to a four parameter logistic for each output using GENE DATA™.

The subject of test [4] is MCF7 ER-positive breast cancer model. Description: In vivo combination studies in MCF7 ER-positive breast cancer xenograft model. Set-up: species or system mice. The settings on record: for Difference (Treatment 1 − Treatment 2): Treatment 1 = Vehicle, log10 tumor volume. An excerpt: Otherwise, the statistical conclusion is additive.

SMILES strings stand for the structures.

T1 sequence (P03372 whole entry): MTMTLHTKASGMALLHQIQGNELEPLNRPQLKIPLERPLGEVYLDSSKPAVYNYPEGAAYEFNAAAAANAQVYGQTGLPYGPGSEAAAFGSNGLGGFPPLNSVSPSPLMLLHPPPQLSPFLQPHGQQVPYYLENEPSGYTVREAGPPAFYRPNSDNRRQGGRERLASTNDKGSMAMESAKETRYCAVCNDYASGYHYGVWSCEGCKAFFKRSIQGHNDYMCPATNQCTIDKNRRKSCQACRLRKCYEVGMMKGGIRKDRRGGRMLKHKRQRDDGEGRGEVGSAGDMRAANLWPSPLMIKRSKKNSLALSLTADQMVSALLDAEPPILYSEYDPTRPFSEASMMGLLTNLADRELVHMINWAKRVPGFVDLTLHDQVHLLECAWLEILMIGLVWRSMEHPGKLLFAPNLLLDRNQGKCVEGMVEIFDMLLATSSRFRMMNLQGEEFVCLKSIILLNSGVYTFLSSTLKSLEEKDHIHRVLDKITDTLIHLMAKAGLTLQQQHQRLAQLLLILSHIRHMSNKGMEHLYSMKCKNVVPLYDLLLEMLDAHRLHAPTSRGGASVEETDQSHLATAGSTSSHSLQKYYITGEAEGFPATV
ERα (wild type), sequence (P03372 whole entry): as above
ERα (Y537S mutant), sequence (P03372 whole entry Y537S): as the sequence (P03372 whole entry) above, with Y537S counted along it

By IC50 is commonly meant the concentration at which inhibition is half-maximal. The Ki is the dissociation constant of the complex between target and ligand, obtained from inhibition or displacement. A low value points to tighter binding. On to `Oc1ccc2c3c(cnc2c1)-c1ccc(Cl)cc1OC3c1ccc(OCCN2CC(CF)C2)cc1` (racemic) [Example 3, 8-chloro-5-(4-{2-[3-(fluoromethyl)azetidin-1-yl]ethoxy}phenyl)-5H-[1]benzopyrano[4,3-c]quinolin-2-ol], for which the IC50 in test [1] came to 77.2 ± 11.5 nM. Besides, the DC50 at ERα [2] is 33.5 ± 7.83 nM. In addition, the inhibition constant Ki on ERα (Y537S mutant) was 6.69 nM; at ERα (wild type), 2.36 nM.

As to `Oc1ccc2c3c(cnc2c1)-c1ccc(Cl)cc1OC3c1ccc(OCCN2CC(CF)C2)cc1` (single isomer, unassigned) [Example 3A, 8-Chloro-5-(4-{2-[3-(fluoromethyl)azetidin-1-yl]ethoxy}phenyl)-5H-[1]benzopyrano[4,3-c]quinolin-2-ol], the IC50 in test [1] was 612 nM; at ERα [3], 927 nM. Further, the DC50 on ERα [2] was 390 nM. The Ki came out at 27.2 nM on ERα (Y537S mutant) and 8.11 nM at ERα (wild type).

In the case of `Oc1ccc2c3c(cnc2c1)-c1ccc(Cl)cc1OC3c1ccc(OCCN2CC(CF)C2)cc1` (single isomer, unassigned) [Example 3B, 8-Chloro-5-(4-{2-[3-(fluoromethyl)azetidin-1-yl]ethoxy}phenyl)-5H-[1]benzopyrano[4,3-c]quinolin-2-ol], the 50% inhibitory concentration (IC50) in test [1] is 16 nM; on ERα [3], 34.4 nM. Further, the DC50 on ERα [2] came out at 8.66 nM. For the same compound, the inhibition constant Ki at ERα (Y537S mutant) came out at 2.79 nM; at ERα (wild type) it was 0.59 nM.

With `CCN1CCN(Cc2ccc(Nc3ncc(F)c(-c4cc(F)c5nc(C)n(C(C)C)c5c4)n3)nc2)CC1` [Abemaciclib, abemaciclib, reference compound], the “Delta T/C % or % Regression” value is −52% in test [4] (Example 1B 10 mpk, Abemaciclib 50 mpk, QD × 42, PO (Table 16)) and −70% in test [4] (Example 10 15 mpk, Abemaciclib 50 mpk, QD × 42, PO (Table 20)). The “Difference (Treatment 1 − Treatment 2)” value is listed as 0.479 in test [4] (Example 1B 10 mpk, Abemaciclib 50 mpk, QD × 42, PO) and 0.445 in test [4] (Example 10 15 mpk, Abemaciclib 50 mpk, QD × 42, PO).

`CO[C@@H](C)Cn1c(=O)n(C)c2cnc3ccc(-c4cncc(C(C)(C)O)c4)cc3c21` [Compound A, 8-[5-(1-hydroxy-1-methylethyl)pyridin-3-yl]-1-[(2 S)-2-methoxypropyl]-3-methyl-1,3-dihydro-2H-imidazo[4,5-c]quinolin-2-one, reference compound]: in test [4] (Example 1B 10 mpk QD × 42, Compound A 7.5 mpk BID × 42, PO (Table 18)), the “Delta T/C % or % Regression” value was −36%. In addition, the “Difference (Treatment 1 − Treatment 2)” value in test [4] (Example 1B 10 mpk QD × 42, Compound A 7.5 mpk BID × 42, PO) stood at 0.504.

As to `CO[C@H]1C[C@@H]2CC[C@@H](C)[C@@](O)(O2)C(=O)C(=O)N2CCCC[C@H]2C(=O)O[C@H]([C@H](C)C[C@@H]2CC[C@@H](OCCO)[C@H](OC)C2)CC(=O)[C@H](C)/C=C(\C)[C@@H](O)[C@@H](OC)C(=O)[C@H](C)C[C@H](C)/C=C/C=C/C=C/1C` [Everolimus, everolimus, reference compound], the “Delta T/C % or % Regression” value in test [4] (Example 10 15 mpk, Everolimus 5 mpk, QD × 42, PO (Table 24)) is on record as −50%. Moreover, in test [4] (Example 10 15 mpk, Everolimus 5 mpk, QD × 42, PO), the “Difference (Treatment 1 − Treatment 2)” value is recorded as 0.433.

In the case of `Cc1nc(NC(=O)N2CCC[C@H]2C(N)=O)sc1-c1ccnc(C(C)(C)C(F)(F)F)c1` [alpelisib, reference compound], in test [4] (Example 10 15 mpk, alpelisib 15 mpk (d1-d7), 10 mpk (d8-42), QD × 42, PO (Table 22)), the “Delta T/C % or % Regression” value is recorded as −21%. Besides, in test [4] (Example 10 15 mpk, alpelisib 15 mpk (d1-d7), 10 mpk (d8-42), QD × 42, PO), the “Difference (Treatment 1 − Treatment 2)” value worked out at 0.445.
